From PubChem BioAssay AID342 (DTP/NCI, 2004) come the findings set out here.

This experiment deals with Swiss mice, Sarcoma 180 sc, mean tumor weight T/C. In words: NCI In Vivo Anticancer Drug Screen. Data for tumor model Sarcoma 180 (subcutaneous) in Swiss mice. The following applies: endpoint: mean tumor weight, higher = larger tumour. The protocol: The antitumor activity of compounds was measured in mice bearing transplantable tumors. Survival or tumor size were measured and the results are expressed as the measurement made in the treated group (T) divided by the measurement made in the vehicle treated control group (C). The tumor model used in this assay is Sarcoma 180 (subcutaneous) in Swiss mice

Setting [1] is: dose: 10.0 mg/kg/injection, schedule: Q01DX007 (sc), vehicle: steriod suspending solution.

SMILES strings stand for the structures. Values joined by “and” are separate entries in the source; they are usually repeats but may differ in a detail not shown here. Equal entries are not always repeated.

In the case of `C=CCOc1ccc2c(c1)CC[C@@H]1[C@@H]2CC[C@]2(C)[C@@H](O)[C@H](O)C[C@@H]12`, the T/C (dose: 2.5 mg/kg/injection, schedule: Q01DX007 (sc), vehicle: steriod suspending solution) is 105 % of control; the T/C (dose: 5.0 mg/kg/injection, schedule: Q01DX007 (sc), vehicle: steriod suspending solution) was 120 % of control; the T/C under setting [1] is 82 % of control.
As to `CCCCCCCCCCCCCCCCCC1=NC(C)CC(C)(C)O1` (stereo unspecified), the T/C (dose: 187.5 mg/kg/injection, schedule: Q#A X014 (ip), vehicle: saline) was 63 % of control.
As for `CC(=O)OC1(C)CC(C)C(=O)C(C(O)CC2CC(=O)NC(=O)C2)C1` (stereo unspecified), the T/C is, setting by setting: (dose: 1:40.0 dilution, schedule: Q01DX007 (ip), vehicle: water) 122 % of control; (dose: 1:2000.0 dilution, schedule: Q01DX007 (ip), vehicle: water) 79 % of control and 92 % of control; (dose: 1:4000.0 dilution, schedule: Q01DX007 (ip), vehicle: water) 49 % of control.
`C#C[C@]1(O)CC[C@H]2[C@@H]3CCc4cc(O)ccc4[C@H]3CC[C@@]21C`: the T/C is 30 % of control and 48 % of control and 50 % of control (dose: 125.0 mg/kg/injection, schedule: Q#A X014 (sc), vehicle: steriod suspending solution); 39 % of control and 50 % of control and 51 % of control (dose: 187.5 mg/kg/injection, schedule: Q#A X014 (sc), vehicle: steriod suspending solution); 62 % of control and 76 % of control (dose: 281.25 mg/kg/injection, schedule: Q#A X014 (sc), vehicle: steriod suspending solution).
With `CS(=O)(=O)OCCCCCOS(C)(=O)=O`, the T/C by setting is: (dose: 16.5 mg/kg/injection, schedule: Q#A X014 (ip), vehicle: methylcellulose (MC)) 54 % of control and 65 % of control; (dose: 37.5 mg/kg/injection, schedule: Q#A X014 (ip), vehicle: methylcellulose (MC)) 54 % of control; (dose: 56.5 mg/kg/injection, schedule: Q#A X014 (ip), vehicle: methylcellulose (MC)) 9 % of control.
For `C[C@]12CC[C@H](O)C[C@H]1CC[C@@H]1[C@@H]2CC[C@]2(C)[C@@H](C3=CC(=O)OC3)[C@@H](O)C[C@]12O`, the T/C was 78 % of control (dose: 3.0 mg/kg/injection, schedule: Q01DX007 (sc), vehicle: steriod suspending solution); 64 % of control under setting [1]; 50 % of control (dose: 25.0 mg/kg/injection, schedule: Q01DX007 (sc), vehicle: steriod suspending solution); 70 % of control (dose: 50.0 mg/kg/injection, schedule: Q01DX007 (sc), vehicle: steriod suspending solution).
As for `CC(=O)OCC(=O)[C@@]1(O)[C@H](C)C[C@H]2[C@@H]3C=C(C)C4=Cc5c(cnn5-c5ccc(F)cc5)C[C@]4(C)[C@H]3[C@@H](O)C[C@@]21C`, the T/C (dose: 0.44 mg/kg/injection, schedule: Q01DX007 (sc), vehicle: steriod suspending solution) is 108 % of control; the T/C (dose: 0.66 mg/kg/injection, schedule: Q01DX007 (sc), vehicle: steriod suspending solution) is 85 % of control; the T/C (dose: 2.25 mg/kg/injection, schedule: Q01DX007 (sc), vehicle: steriod suspending solution) was 23 % of control and 34 % of control; the T/C (dose: 3.38 mg/kg/injection, schedule: Q01DX007 (sc), vehicle: steriod suspending solution) is 37 % of control and 44 % of control and 62 % of control; the T/C (dose: 5.07 mg/kg/injection, schedule: Q01DX007 (sc), vehicle: steriod suspending solution) was 26 % of control and 49 % of control; the T/C (dose: 7.61 mg/kg/injection, schedule: Q01DX007 (sc), vehicle: steriod suspending solution) is 24 % of control. In addition, under “dose: 11.42 mg/kg/injection, schedule: Q01DX007 (sc), vehicle: steriod suspending solution”, the T/C is 24 % of control.
On to `Cn1c(N)nc2nc[nH]c2c1=S`, for which the T/C by setting is: (dose: 1.35 mg/kg/injection, schedule: Q#A X014 (ip), vehicle: methylcellulose (MC)) 108 % of control; (dose: 2.0 mg/kg/injection, schedule: Q#A X014 (ip), vehicle: methylcellulose (MC)) 45 % of control; (dose: 3.0 mg/kg/injection, schedule: Q#A X014 (ip), vehicle: methylcellulose (MC)) 67 % of control; (dose: 4.5 mg/kg/injection, schedule: Q#A X014 (ip), vehicle: methylcellulose (MC)) 37 % of control.
Regarding `CO[C@H]1CC[C@@]2(C)C(=CC[C@H]3[C@@H]4C[C@H](O)[C@H](OC)[C@@]4(C)CC[C@@H]32)C1`, the T/C was 94 % of control (dose: 0.25 mg/kg/injection, schedule: Q#A X014 (sc), vehicle: steriod suspending solution); 85 % of control (dose: 2.5 mg/kg/injection, schedule: Q#A X014 (sc), vehicle: steriod suspending solution); 122 % of control (dose: 10.0 mg/kg/injection, schedule: Q#A X014 (sc), vehicle: steriod suspending solution); 97 % of control (dose: 50.0 mg/kg/injection, schedule: Q#A X014 (sc), vehicle: steriod suspending solution).
For the compound `COc1ccc(C[C@H]2NC[C@H](O)[C@H]2OC(C)=O)cc1`, the T/C by setting is: (dose: 3.13 mg/kg/injection, schedule: Q01DX007 (ip), vehicle: saline) 65 % of control; (dose: 6.25 mg/kg/injection, schedule: Q01DX007 (ip), vehicle: saline) 69 % of control; (dose: 12.5 mg/kg/injection, schedule: Q01DX007 (ip), vehicle: saline) 58 % of control; (dose: 25.0 mg/kg/injection, schedule: Q01DX007 (ip), vehicle: saline) 56 % of control and 66 % of control; (dose: 50.0 mg/kg/injection, schedule: Q01DX007 (ip), vehicle: saline) 108 % of control; (dose: 100.0 mg/kg/injection, schedule: Q01DX007 (ip), vehicle: saline) 104 % of control.
For the compound `ClCc1c2ccccc2c(CCl)c2ccccc12`, the T/C runs as follows: (dose: 0.25 mg/kg/injection, schedule: Q01DX007 (ip), vehicle: methylcellulose (MC)) 95 % of control; (dose: 0.5 mg/kg/injection, schedule: Q01DX007 (ip), vehicle: methylcellulose (MC)) 89 % of control; (dose: 1.0 mg/kg/injection, schedule: Q01DX007 (ip), vehicle: methylcellulose (MC)) 122 % of control; (dose: 1.5 mg/kg/injection, schedule: Q01DX007 (ip), vehicle: methylcellulose (MC)) 72 % of control; (dose: 1.8 mg/kg/injection, schedule: Q01DX007 (ip), vehicle: other) 22 % of control; (dose: 1.8 mg/kg/injection, schedule: Q01DX007 (ip), vehicle: saline) 113 % of control. The T/C is 72 % of control (dose: 2.0 mg/kg/injection, schedule: Q01DX007 (ip), vehicle: methylcellulose (MC)); 23 % of control (dose: 2.6 mg/kg/injection, schedule: Q01DX007 (ip), vehicle: other); 102 % of control (dose: 2.6 mg/kg/injection, schedule: Q01DX007 (ip), vehicle: saline); 26 % of control (dose: 4.0 mg/kg/injection, schedule: Q01DX007 (ip), vehicle: other); 17 % of control (dose: 6.0 mg/kg/injection, schedule: Q01DX007 (ip), vehicle: other); 40 % of control (dose: 9.0 mg/kg/injection, schedule: Q01DX007 (ip), vehicle: saline).
For `CCC(=O)OCC1OC(n2cnc3c(=S)nc(N)[nH]c32)C(OC(=O)CC)C1OC(=O)CC` (stereo unspecified), the T/C is 61 % of control (dose: 1.0 mg/kg/injection, schedule: Q01DX007 (ip), vehicle: carboxymethylcellulose (CMC)); 65 % of control (dose: 2.0 mg/kg/injection, schedule: Q01DX007 (ip), vehicle: carboxymethylcellulose (CMC)); 57 % of control and 58 % of control (dose: 5.0 mg/kg/injection, schedule: Q01DX007 (ip), vehicle: carboxymethylcellulose (CMC)); 22 % of control (dose: 11.0 mg/kg/injection, schedule: Q01DX007 (ip), vehicle: carboxymethylcellulose (CMC)).
On to `O=C(CBr)c1ccc(Br)cc1`, for which the T/C reads like this: (dose: 7.5 mg/kg/injection, schedule: Q01DX007 (ip), vehicle: other) 63 % of control; (dose: 15.0 mg/kg/injection, schedule: Q01DX007 (ip), vehicle: other) 49 % of control and 73 % of control; (dose: 20.0 mg/kg/injection, schedule: Q01DX007 (ip), vehicle: other) 42 % of control.
In the case of `O=c1cn[nH]c(=O)[nH]1`, the T/C reads like this: (dose: 62.5 mg/kg/injection, schedule: Q#A X014 (ip), vehicle: carboxymethylcellulose (CMC)) 103 % of control; (dose: 125.0 mg/kg/injection, schedule: Q#A X014 (ip), vehicle: carboxymethylcellulose (CMC)) 77 % of control; (dose: 250.0 mg/kg/injection, schedule: Q#A X014 (ip), vehicle: carboxymethylcellulose (CMC)) 73 % of control; (dose: 500.0 mg/kg/injection, schedule: Q#A X014 (ip), vehicle: carboxymethylcellulose (CMC)) 45 % of control.
For `COc1cc2c3c(c4ccc(OC)c(OC)c4c2cc1OC)CN1CCC[C@@H]1C3`, the T/C (dose: 12.0 mg/kg/injection, schedule: Q01DX007 (ip), vehicle: water) is 21 % of control.
Regarding `CNC(=O)NO`, the T/C is 100 % of control (dose: 50.0 mg/kg/injection, schedule: Q01DX007 (ip), vehicle: water); 109 % of control (dose: 100.0 mg/kg/injection, schedule: Q01DX007 (ip), vehicle: water); 95 % of control (dose: 200.0 mg/kg/injection, schedule: Q01DX007 (ip), vehicle: water); 60 % of control (dose: 400.0 mg/kg/injection, schedule: Q01DX007 (ip), vehicle: water).

What is called T/C is the result in the treated group divided by that in the control group, in per cent.
